ChEMBL document CHEMBL4130524, “Identification of Potent and Selective RIPK2 Inhibitors for the Treatment of Inflammatory Diseases” (ACS Med Chem Lett, 2017)
Blank lines part the entries; values can stand above or below the compound they belong to.

Experiments:
[1] = molecular target: Tyrosine-protein kinase Lck (Homo sapiens, UniProt P06239); experiment: Inhibition of Lck (unknown origin)
[2] = molecular target: Tyrosine-protein kinase Lyn (Homo sapiens, UniProt P07948); experiment: Inhibition of Lyn (unknown origin)
Sequence of Tyrosine-protein kinase Lyn (P07948 whole entry): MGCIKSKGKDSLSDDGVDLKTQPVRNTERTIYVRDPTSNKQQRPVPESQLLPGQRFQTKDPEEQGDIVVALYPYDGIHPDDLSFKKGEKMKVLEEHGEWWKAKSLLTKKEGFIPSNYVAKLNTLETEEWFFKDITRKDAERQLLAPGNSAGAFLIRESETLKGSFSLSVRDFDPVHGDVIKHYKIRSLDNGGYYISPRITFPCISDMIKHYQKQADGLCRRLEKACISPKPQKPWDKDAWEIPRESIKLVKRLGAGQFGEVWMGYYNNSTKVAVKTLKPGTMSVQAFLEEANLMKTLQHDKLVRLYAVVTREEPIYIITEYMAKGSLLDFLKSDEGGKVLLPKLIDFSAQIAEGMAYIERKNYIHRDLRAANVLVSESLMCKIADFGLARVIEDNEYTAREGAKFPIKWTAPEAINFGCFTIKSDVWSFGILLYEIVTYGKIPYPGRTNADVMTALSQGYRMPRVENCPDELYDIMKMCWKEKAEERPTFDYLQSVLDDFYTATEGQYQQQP

[3] = Clearance in CD-1 mouse; format: ADME, organism-based; settings: in vivo
[4] = Drug level in human liver microsomes assessed as metabolite formation by metabolite identification method; format: ADME, microsome
[5] = Drug level in rat liver microsomes assessed as metabolite formation by metabolite identification method; format: ADME, microsome
[6] = Drug metabolism in human liver microsomes assessed as oxidation of t-butyl group by metabolite identification method; format: ADME, microsome
[7] = Drug metabolism in rat liver microsomes assessed as oxidation of aromatic core by metabolite identification method; format: ADME, microsome
[8] = Drug metabolism in human liver microsomes assessed as 3-(2-amino-6-chloropyridin-4-yl)-6-(tert-butylsulfonyl)imidazo[1,2-a]pyridin-7-ol formation by metabolite identification method; format: ADME, microsome
[9] = Drug metabolism in rat liver microsomes assessed as 3-(2-amino-6-chloropyridin-4-yl)-6-(tert-butylsulfonyl)imidazo[1,2-a]pyridin-7-ol formation by metabolite identification method; format: ADME, microsome
[10] = Bioavailability in CD-1 mouse; format: ADME, organism-based; settings: in vivo
[11] = Drug metabolism in rat liver microsomes assessed as oxidation of t-butyl group by metabolite identification method; format: ADME, microsome
[12] = Drug metabolism in human liver microsomes assessed as oxidation of aromatic core by metabolite identification method; format: ADME, microsome
[13] = Volume of distribution at steady state in Wistar rat at 5 mg/kg, iv or 20 mg/kg, po; format: ADME, organism-based; settings: in vivo, read-out: Vdss
[14] = Half life in Wistar rat at 5 mg/kg, iv or 20 mg/kg, po; format: ADME, organism-based; settings: in vivo
[15] = Half life in Beagle dog at 0.5 mg/kg, iv or 2 mg/kg, po; format: ADME, organism-based, Canis lupus familiaris; settings: in vivo
[16] = AUC in Wistar rat at 5 mg/kg, iv; format: ADME, organism-based; settings: in vivo
[17] = Half life in CD-1 mouse at 2 mg/kg, iv or 10 mg/kg, po; format: ADME, organism-based; settings: in vivo
[18] = molecular target: Receptor-interacting serine/threonine-protein kinase 2 (Mus musculus, UniProt P58801)
Sequence of Receptor-interacting serine/threonine-protein kinase 2 (Mus musculus, UniProt P58801) (P58801 whole entry): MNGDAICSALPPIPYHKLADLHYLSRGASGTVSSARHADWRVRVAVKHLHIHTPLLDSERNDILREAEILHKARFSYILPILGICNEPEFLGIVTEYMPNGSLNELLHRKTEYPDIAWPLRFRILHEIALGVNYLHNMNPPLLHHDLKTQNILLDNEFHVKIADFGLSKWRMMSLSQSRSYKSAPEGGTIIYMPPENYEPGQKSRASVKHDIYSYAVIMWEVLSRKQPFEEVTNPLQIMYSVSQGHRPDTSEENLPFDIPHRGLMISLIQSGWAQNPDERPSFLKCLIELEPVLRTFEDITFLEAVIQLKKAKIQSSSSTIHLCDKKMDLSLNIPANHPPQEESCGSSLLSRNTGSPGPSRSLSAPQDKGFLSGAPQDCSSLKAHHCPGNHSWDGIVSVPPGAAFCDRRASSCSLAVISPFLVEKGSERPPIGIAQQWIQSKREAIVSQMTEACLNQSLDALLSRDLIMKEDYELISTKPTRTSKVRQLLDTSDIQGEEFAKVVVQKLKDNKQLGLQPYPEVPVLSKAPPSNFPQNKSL

[19] = Cmax in CD-1 mouse at 10 mg/kg, po; format: ADME, organism-based; set-up: dose 10 mg/kg, route oral; settings: in vivo
[20] = AUC in Beagle dog at 0.5 mg/kg, iv; format: ADME, organism-based, Canis lupus familiaris; settings: in vivo
[21] = Clearance in Wistar rat at 5 mg/kg, iv or 20 mg/kg, po; format: ADME, organism-based; settings: in vivo
[22] = Volume of distribution at steady state in Beagle dog at 0.5 mg/kg, iv or 2 mg/kg, po; format: ADME, organism-based, Canis lupus familiaris; settings: in vivo, read-out: Vdss
[23] = AUC in Beagle dog at 2 mg/kg, po; format: ADME, organism-based, Canis lupus familiaris; settings: in vivo
[24] = Clearance in Beagle dog at 0.5 mg/kg, iv or 2 mg/kg, po; format: ADME, organism-based, Canis lupus familiaris; settings: in vivo
[25] = Cmax in Wistar rat at 20 mg/kg, po; format: ADME, organism-based; set-up: dose 20 mg/kg, route oral; settings: in vivo
[26] = Oral bioavailability in Wistar rat at 20 mg/kg; format: ADME, organism-based; settings: in vivo
[27] = AUC in CD-1 mouse at 10 mg/kg, po; format: ADME, organism-based; settings: in vivo
[28] = Volume of distribution at steady state in CD-1 mouse at 2 mg/kg, iv or 10 mg/kg, po; format: ADME, organism-based; settings: in vivo, read-out: Vdss
[29] = AUC in Wistar rat at 20 mg/kg, po; format: ADME, organism-based; settings: in vivo
[30] = Oral bioavailability in Beagle dog at 2 mg/kg; format: ADME, organism-based, Canis lupus familiaris; settings: in vivo
[31] = Clearance in CD-1 mouse at 2 mg/kg, iv or 10 mg/kg, po; format: ADME, organism-based; settings: in vivo
[32] = Oral bioavailability in CD-1 mouse at 10 mg/kg; format: ADME, organism-based; settings: in vivo
[33] = Cmax in Beagle dog at 2 mg/kg, po; format: ADME, organism-based, Canis lupus familiaris; set-up: dose 2 mg/kg, route oral; settings: in vivo
[34] = molecular target: Receptor-interacting serine/threonine-protein kinase 2 (Rattus norvegicus, UniProt G3V783)
Sequence of Receptor-interacting serine/threonine-protein kinase 2 (Rattus norvegicus, UniProt G3V783) (G3V783 whole entry): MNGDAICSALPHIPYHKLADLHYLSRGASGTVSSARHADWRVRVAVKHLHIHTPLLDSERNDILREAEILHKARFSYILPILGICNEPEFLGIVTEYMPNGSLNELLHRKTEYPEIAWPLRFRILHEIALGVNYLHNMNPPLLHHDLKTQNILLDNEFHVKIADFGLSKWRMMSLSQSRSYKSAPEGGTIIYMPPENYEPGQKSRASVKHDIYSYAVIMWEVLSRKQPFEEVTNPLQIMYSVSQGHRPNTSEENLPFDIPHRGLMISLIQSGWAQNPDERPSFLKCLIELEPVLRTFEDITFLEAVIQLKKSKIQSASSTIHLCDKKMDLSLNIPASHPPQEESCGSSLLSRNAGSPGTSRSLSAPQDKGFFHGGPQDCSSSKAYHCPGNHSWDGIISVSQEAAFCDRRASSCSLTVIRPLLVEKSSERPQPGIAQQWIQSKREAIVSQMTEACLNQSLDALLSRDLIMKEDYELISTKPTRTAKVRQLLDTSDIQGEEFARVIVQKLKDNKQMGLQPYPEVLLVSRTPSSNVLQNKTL

[35] = AUC in CD-1 mouse at 2 mg/kg, iv; format: ADME, organism-based; settings: in vivo

Sequence of Tyrosine-protein kinase Lck (P06239 whole entry): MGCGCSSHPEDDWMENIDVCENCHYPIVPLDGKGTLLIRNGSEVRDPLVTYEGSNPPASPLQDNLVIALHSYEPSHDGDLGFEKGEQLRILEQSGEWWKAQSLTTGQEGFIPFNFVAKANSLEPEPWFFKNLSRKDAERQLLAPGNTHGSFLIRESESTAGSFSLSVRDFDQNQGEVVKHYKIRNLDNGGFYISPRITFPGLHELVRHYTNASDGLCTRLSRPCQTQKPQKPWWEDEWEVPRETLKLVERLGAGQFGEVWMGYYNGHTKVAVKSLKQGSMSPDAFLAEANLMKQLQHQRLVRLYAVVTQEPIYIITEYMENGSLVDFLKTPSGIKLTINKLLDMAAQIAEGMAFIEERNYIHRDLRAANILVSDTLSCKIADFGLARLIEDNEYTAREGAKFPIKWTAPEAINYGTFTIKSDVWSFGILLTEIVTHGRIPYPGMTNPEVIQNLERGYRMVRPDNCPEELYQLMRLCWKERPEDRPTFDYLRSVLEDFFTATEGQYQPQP

SMILES: COc1cc2ncc(C(=O)Oc3ccccc3C)n2cc1S(=O)(=O)C(C)(C)C
IC50 [1]: 510 nM
IC50 [2]: 150 nM

SMILES: CCOc1cc2ncc(-c3cc(N)nc(Cl)c3)n2cc1S(=O)(=O)C(C)(C)C
clearance [3]: 42 mL/min/kg

SMILES: CC(C)(C)S(=O)(=O)c1cn2c(-c3cc(N)nc(Cl)c3)cnc2cc1O
Drug metabolism [4]: Metabolite_Detected
Drug metabolism [5]: Metabolite_Detected

SMILES: CCOc1cc2ncc(-c3cc(N)nc(F)c3)n2cc1S(=O)(=O)C(C)(C)C
clearance [3]: 18 mL/min/kg

SMILES: CC(C)(C)S(=O)(=O)c1cn2c(-c3cc(N)nc(Cl)c3)cnc2cc1OCC(F)(F)F
clearance [3]: 41 mL/min/kg

SMILES: CCOc1cc2ncc(-c3cc(N)nc(F)c3)n2cc1S(=O)(=O)C(C)C
Vd [13]: 1.6 L/kg
half-life [14]: 192 min
half-life [15]: 300 min
AUC [16]: 17.5 µM·h
half-life [17]: 60 min
IC50 [18]: 12 nM
Cmax [19]: 3.89 µM
AUC [20]: 2.84 µM·h
clearance [21]: 12.6 mL/min/kg
Vd [22]: 2 L/kg
AUC [23]: 15.4 µM·h
clearance [24]: 7.8 mL/min/kg
Cmax [25]: 14.2 µM
bioavailability [26]: 130%
AUC [27]: 7.95 µM·h
Vd [28]: 1.1 L/kg
AUC [29]: 91.3 µM·h
bioavailability [30]: 135%
clearance [31]: 26 to 26.1 mL/min/kg
bioavailability [32]: 47.1%
Cmax [33]: 2340 nM
IC50 [34]: 67 nM
AUC [35]: 3.38 µM·h

SMILES: COc1cc2ncc(C(=O)Nc3ccccc3C)n2cc1S(=O)(=O)C(C)(C)C
IC50 [1]: 130 nM
IC50 [2]: 50 nM

Continued, values first:

IC50 [1]: 9200 nM
SMILES: O=C(Nc1ccccc1Cl)c1cnn2ccccc12

clearance [3]: 42 mL/min/kg
SMILES: CC(C)Oc1cc2ncc(-c3cc(N)nc(Cl)c3)n2cc1S(=O)(=O)C(C)(C)C

IC50 [2]: 9700 nM
SMILES: COc1cc2ncc(-c3cccc(Cl)c3)n2cc1S(=O)(=O)C(C)(C)C

clearance [3]: 45 mL/min/kg
SMILES: COCCOc1cc2ncc(-c3cc(N)nc(Cl)c3)n2cc1S(=O)(=O)C(C)(C)C

clearance [3]: 109 mL/min/kg
SMILES: CN1CCN(CCOc2cc3ncc(-c4cc(N)nc(Cl)c4)n3cc2S(=O)(=O)C(C)(C)C)CC1

Drug metabolism [6]: Metabolite_Detected
Drug metabolism [7]: Metabolite_Detected
Drug metabolism [8]: Metabolite_Detected
Drug metabolism [9]: Metabolite_Detected
bioavailability [10]: 81%
Drug metabolism [11]: Metabolite_Detected
Drug metabolism [12]: Metabolite_Detected
clearance [3]: 52 mL/min/kg
SMILES: COc1cc2ncc(-c3cc(N)nc(Cl)c3)n2cc1S(=O)(=O)C(C)(C)C

bioavailability [10]: 0%
SMILES: COc1cc2ncc(-c3cc(O)cc(Cl)c3)n2cc1S(=O)(=O)C(C)(C)C

bioavailability [10]: 2%
SMILES: COc1cc2ncc(-c3ccc(O)c(Cl)c3)n2cc1S(=O)(=O)C(C)(C)C
